Measurements as given in US20080255085A1, “Novel Imidazo [4,5-b] Pyridine Derivatives as Inhibitors of Glycogen Synthase Kinase 3 for Use in the Treatment of Dementia and Neurodegenerative Disorders” (ASTRAZENECA AB, priority 2005, published 2008).
Structures can show the parent of a compound that is named as a salt.

Target: T1, GSK3β (Homo sapiens, UniProt P49841)
T1 construct: purchased Dundee University, UK
Assay: GSK3β Scintillation Proximity Assay (ATP competition)
Type: biochemical
Conditions: recombinant human GSK3; 1 μM ATP; Km of ATP 20 μM used to calculate Ki; 20 minutes at room temperature
Method: Determination of ATP Competition in Scintillation Proximity GSK3β Assay.
GSK3β Scintillation Proximity Assay.
The competition experiments were carried out in duplicate with 10 different concentrations of the inhibitors in clear-bottom microtiter plates (Wallac, Finland). A biotinylated peptide substrate, Biotin-Ala-Ala-Glu-Glu-Leu-Asp-Ser-Arg-Ala-Gly-Ser(PO3H2)-Pro-Gln-Leu (AstraZeneca, Lund), was added at a final concentration of 1 μM in an assay buffer containing 1 mU recombinant human GSK3 (Dundee University, UK), 12 mM morpholinepropanesulfonic acid (MOPS), pH 7.0, 0.3 mM EDTA, 0.01% β-mercaptorethanol, 0.004% Brij 35 (a […] detergent), 0.5% glycerol and 0.5 μg BSA/25 μl. The reaction was initiated by the addition of 0.04 μCi [γ-^33P]ATP (Amersham, UK) and unlabelled ATP at a final concentration of 1 μM and assay volume of 25 μl. After incubation for 20 minutes at room temperature, each reaction was terminated by the addition of 25 μl stop solution containing 5 mM EDTA, […] ATP, 0.1% Triton X-100 and 0.25 mg streptavidin coated Scintillation Proximity Assay (SPA) beads (Amersham, UK). After 6 hours the radioactivity was determined in a liquid scintillation counter (1450 MicroBeta Trilux, Wallac). The inhibition curves were analysed by non-linear regression using GraphPad Prism, USA. The Km value of ATP for GSK3β, used to calculate the inhibition constants (Ki) of the various compounds, was 20 μM.

T1 sequence (P49841 whole entry): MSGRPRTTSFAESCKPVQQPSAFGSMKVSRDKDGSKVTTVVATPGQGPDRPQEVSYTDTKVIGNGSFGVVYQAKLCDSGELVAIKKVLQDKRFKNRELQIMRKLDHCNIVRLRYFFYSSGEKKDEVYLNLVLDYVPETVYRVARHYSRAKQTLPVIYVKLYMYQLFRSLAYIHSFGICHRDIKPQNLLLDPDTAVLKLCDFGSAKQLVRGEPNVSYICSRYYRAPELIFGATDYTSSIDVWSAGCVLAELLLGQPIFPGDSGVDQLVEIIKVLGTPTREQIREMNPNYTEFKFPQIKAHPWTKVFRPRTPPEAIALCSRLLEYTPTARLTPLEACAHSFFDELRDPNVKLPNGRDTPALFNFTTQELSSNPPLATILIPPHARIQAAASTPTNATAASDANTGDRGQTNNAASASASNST

Ki [nM] | SMILES
124 | COc1cccc(-c2ccnc3[nH]c(-c4ccc(S(=O)(=O)N5CCN(C)CC5)cc4)nc23)c1 [Example 2, 7-(3-Methoxyphenyl)-2-{4-[(4-methylpiperazin-1-yl)sulfonyl]phenyl}-3H-imidazo[4,5-b]pyridine hydrochloride]
31 | COc1ccc(-c2ccnc3[nH]c(-c4ccc(CN5CCCCC5)cc4)nc23)cc1 [Example 6, 7-(4-Methoxyphenyl)-2-[4-(piperidin-1-ylmethyl)phenyl]-3H-imidazo[4,5-b]pyridine hydrochloride]
44 | COc1ccc(-c2ccnc3[nH]c(-c4ccc(C(=O)NCCN5CCOCC5)cc4)nc23)cc1 [Example 7, 4-[7-(4-Methoxyphenyl)-3H-imidazo[4,5-b]pyridin-2-yl]-N-(2-morpholin-4-ylethyl)benzamide hydrochloride]
254 | CN1CCN(C(=O)c2ccc(-c3nc4c(-c5cccnc5)ccnc4[nH]3)cc2)CC1 [Example 9, 2-{4-[(4-Methylpiperazin-1-yl)carbonyl]phenyl}-7-pyridin-3-yl-3H-imidazo[4,5-b]pyridine hydrochloride]
